These are literature values, as cited in patent US20260140098A1, “METHOD FOR TREATING PLASMA SAMPLE CONTAINING (7aS,2'S)-2-OXO-CLOPIDOGREL AND METHOD FOR DETERMINING THE SAME” (CHENGDU SHIBEIKANG BIOMEDICAL TECHNOLOGY CO., LTD., priority 2021, published 2026).

The target of data set [1] is CYP1A2 (Homo sapiens, UniProt P05177). The note with it: by CYP1A2; cited from earlier work.
Data set [2] has as its target CYP2B6 (Homo sapiens, UniProt P20813). The note with it: by CYP2B6; cited from earlier work.
Data set [3] addresses CYP2C19 (Homo sapiens, UniProt P33261). The note with it: by CYP2C19; cited from earlier work.

Chain of CYP2B6 (P20813 whole entry): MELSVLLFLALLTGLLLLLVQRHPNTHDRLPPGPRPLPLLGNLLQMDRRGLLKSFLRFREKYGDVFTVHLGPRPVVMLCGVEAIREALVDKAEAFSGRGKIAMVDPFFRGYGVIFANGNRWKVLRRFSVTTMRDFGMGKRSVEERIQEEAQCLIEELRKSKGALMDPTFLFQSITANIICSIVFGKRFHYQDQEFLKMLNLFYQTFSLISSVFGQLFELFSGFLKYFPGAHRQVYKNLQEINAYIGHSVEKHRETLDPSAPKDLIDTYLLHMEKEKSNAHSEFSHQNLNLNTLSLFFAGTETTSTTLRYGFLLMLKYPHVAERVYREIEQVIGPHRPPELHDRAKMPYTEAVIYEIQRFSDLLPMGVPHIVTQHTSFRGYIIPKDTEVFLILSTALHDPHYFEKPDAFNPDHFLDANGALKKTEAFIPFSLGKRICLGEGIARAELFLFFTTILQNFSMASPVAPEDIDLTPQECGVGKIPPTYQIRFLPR
Chain of CYP2C19 (P33261 whole entry): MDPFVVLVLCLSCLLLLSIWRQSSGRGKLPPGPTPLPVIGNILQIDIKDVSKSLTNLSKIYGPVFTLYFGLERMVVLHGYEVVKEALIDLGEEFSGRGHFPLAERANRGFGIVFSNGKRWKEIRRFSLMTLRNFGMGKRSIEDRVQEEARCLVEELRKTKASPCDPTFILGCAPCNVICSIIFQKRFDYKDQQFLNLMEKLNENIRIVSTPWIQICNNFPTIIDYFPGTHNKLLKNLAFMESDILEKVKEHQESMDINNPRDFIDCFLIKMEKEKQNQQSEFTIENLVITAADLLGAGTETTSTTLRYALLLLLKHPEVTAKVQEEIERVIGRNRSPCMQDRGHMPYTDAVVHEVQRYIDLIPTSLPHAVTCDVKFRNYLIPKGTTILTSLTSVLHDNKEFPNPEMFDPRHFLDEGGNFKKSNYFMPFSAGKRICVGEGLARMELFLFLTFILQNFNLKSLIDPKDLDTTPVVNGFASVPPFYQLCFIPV
Chain of CYP1A2 (P05177 whole entry): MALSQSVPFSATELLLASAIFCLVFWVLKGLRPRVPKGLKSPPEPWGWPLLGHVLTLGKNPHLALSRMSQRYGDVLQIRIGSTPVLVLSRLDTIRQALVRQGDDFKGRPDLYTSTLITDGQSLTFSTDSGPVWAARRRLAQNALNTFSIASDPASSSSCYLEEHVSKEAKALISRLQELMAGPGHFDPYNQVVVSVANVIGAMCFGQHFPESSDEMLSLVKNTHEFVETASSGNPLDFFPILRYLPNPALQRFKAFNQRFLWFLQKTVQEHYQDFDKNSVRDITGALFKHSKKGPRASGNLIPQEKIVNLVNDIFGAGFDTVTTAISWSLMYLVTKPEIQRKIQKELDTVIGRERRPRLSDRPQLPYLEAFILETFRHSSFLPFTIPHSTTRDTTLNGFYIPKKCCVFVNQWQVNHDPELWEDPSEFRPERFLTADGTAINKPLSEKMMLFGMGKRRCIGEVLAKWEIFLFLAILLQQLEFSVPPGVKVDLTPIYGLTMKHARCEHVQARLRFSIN

`COC(=O)[C@H](c1ccccc1Cl)N1CCc2sccc2C1` [clopidogrel]: the “Share of Phase I metabolism into inactive 2-oxo-clopidogrel” value in data set [1] is roughly 36%; in data set [2] it was roughly 19%; in data set [3], roughly 45%.
